Earlier results, collected in patent US9381163B2, “Floating capsules encapsulating particles loaded with one or more drugs” (NANYANG TECHNOLOGICAL UNIVERSITY, priority 2012, dated 2016).

metoprolol tartrate salt
log P: 1.6
